Laboratory results: US10004701B2, “Methods and compositions for treating infection” (UNIVERSITY OF ROCHESTER, priority 2012, dated 2018)
Structures can show the parent of a compound that is named as a salt. Where two headings read alike, the source gives them in different places.

Legend:
Experiment in all cases: AK assay 384-well format, Prestwick library screening
E. coli = format: cell-based, Escherichia coli; conditions: 50 μM final drug concentration; for fold induction at 50 µM: Escherichia coli, 3 h
[1] = system: S. aureus strain USA300-0114; format: cell-based, Staphylococcus aureus; conditions: 50 μM final drug concentration; for fold induction at 50 µM: Staphylococcus aureus, USA300, 3 h
P. aeruginosa = format: cell-based, Pseudomonas aeruginosa; conditions: 50 μM final drug concentration; for fold induction at 50 µM: Pseudomonas aeruginosa, 3 h
K. pneumoniae = format: cell-based, Klebsiella pneumoniae; conditions: 50 μM final drug concentration; for fold induction at 50 µM: Klebsiella pneumoniae, 3 h
E. cloacae = format: cell-based, Enterobacter cloacae; conditions: 50 μM final drug concentration; for fold induction at 50 µM: Enterobacter cloacae, 3 h
[2] = system: A. baumannii strain 98-37-09; format: cell-based, Acinetobacter baumannii; conditions: 50 μM final drug concentration; for fold induction at 50 µM: Acinetobacter baumannii, 983709, 3 h
E. faecium = format: cell-based, Enterococcus faecium; conditions: 50 μM final drug concentration; for fold induction at 50 µM: Enterococcus faecium, 3 h
[3] = planktonic E. coli, cutoff for positive-scoring molecules 3-fold increase, read-out: AK-based Prestwick Library Screening Results, E. coli (increase in extracellular AK activity)
[4] = planktonic S. aureus, cutoff for positive-scoring molecules 3-fold increase, read-out: AK-based Prestwick Library Screening Results, S. aureus (increase in extracellular AK activity)
[5] = planktonic P. aeruginosa, cutoff for positive-scoring molecules 3-fold increase, read-out: AK-based Prestwick Library Screening Results, P. aeruginosa (increase in extracellular AK activity)
[6] = planktonic K. pneumoniae, cutoff for positive-scoring molecules 3-fold increase, read-out: AK-based Prestwick Library Screening Results, K. pneumoniae (increase in extracellular AK activity)
[7] = planktonic E. cloacae, cutoff for positive-scoring molecules 3-fold increase, read-out: AK-based Prestwick Library Screening Results, E. cloacae (increase in extracellular AK activity)
[8] = planktonic A. baumannii, cutoff for positive-scoring molecules 3-fold increase, read-out: AK-based Prestwick Library Screening Results, A. baumannii (increase in extracellular AK activity)
[9] = planktonic E. faecium, cutoff for positive-scoring molecules 3-fold increase, read-out: AK-based Prestwick Library Screening Results, E. faecium (increase in extracellular AK activity)
[10] = cutoff for positive-scoring molecules 3-fold increase, read-out: AK-based Prestwick Library Screening Results, E. coli (fold increase in extracellular AK activity)
[11] = cutoff for positive-scoring molecules 3-fold increase, read-out: AK-based Prestwick Library Screening Results, S. aureus (fold increase in extracellular AK activity)
[12] = cutoff for positive-scoring molecules 3-fold increase, read-out: AK-based Prestwick Library Screening Results, P. aeruginosa (fold increase in extracellular AK activity)
[13] = cutoff for positive-scoring molecules 3-fold increase, read-out: AK-based Prestwick Library Screening Results, K. pneumoniae (fold increase in extracellular AK activity)
[14] = cutoff for positive-scoring molecules 3-fold increase, read-out: AK-based Prestwick Library Screening Results, E. cloacae (fold increase in extracellular AK activity)
[15] = cutoff for positive-scoring molecules 3-fold increase, read-out: AK-based Prestwick Library Screening Results, A. baumannii (fold increase in extracellular AK activity)
[16] = cutoff for positive-scoring molecules 3-fold increase, read-out: AK-based Prestwick Library Screening Results, E. faecium (fold increase in extracellular AK activity)
[17] = 384-well format, cutoff for positive-scoring molecules 3-fold increase, read-out: AK-based Prestwick Library Screening Results, E. coli (increase in extracellular AK activity)
[18] = 384-well format, cutoff for positive-scoring molecules 3-fold increase, read-out: AK-based Prestwick Library Screening Results, S. aureus (increase in extracellular AK activity)
[19] = 384-well format, cutoff for positive-scoring molecules 3-fold increase, read-out: AK-based Prestwick Library Screening Results, P. aeruginosa (increase in extracellular AK activity)
[20] = 384-well format, cutoff for positive-scoring molecules 3-fold increase, read-out: AK-based Prestwick Library Screening Results, K. pneumoniae (increase in extracellular AK activity)
[21] = 384-well format, cutoff for positive-scoring molecules 3-fold increase, read-out: AK-based Prestwick Library Screening Results, E. cloacae (increase in extracellular AK activity)
[22] = 384-well format, cutoff for positive-scoring molecules 3-fold increase, read-out: AK-based Prestwick Library Screening Results, A. baumannii (increase in extracellular AK activity)
[23] = 384-well format, cutoff for positive-scoring molecules 3-fold increase, read-out: AK-based Prestwick Library Screening Results, E. faecium (increase in extracellular AK activity)
[24] = cutoff for positive-scoring molecules 3-fold increase

## O=c1[nH]c2ccccc2n1CCCN1CCC(n2c(=O)[nH]c3cc(Cl)ccc32)CC1 [Domperidone]
E. coli; [3]
  fold induction at 50 µM: 0.6
[1]; [4]
  fold induction at 50 µM: 0.8
P. aeruginosa; [5]
  fold induction at 50 µM: 0.6
K. pneumoniae; [6]
  fold induction at 50 µM: 0.6
E. cloacae; [7]
  fold induction at 50 µM: 0.8
[2]; [8]
  fold induction at 50 µM: 0.7
E. faecium; [9]
  fold induction at 50 µM: 0.9

## CCN[C@H]1C[C@H](C)S(=O)(=O)c2sc(S(N)(=O)=O)cc21 [Dorzolamide hydrochloride]
E. coli; planktonic E. coli, positive cutoff 3-fold increase, read-out: AK-based Prestwick library screening result, E. coli (fold increase in extracellular AK activity)
  fold induction at 50 µM: 1.1
[1]; planktonic S. aureus, positive cutoff 3-fold increase, read-out: AK-based Prestwick library screening result, S. aureus (fold increase in extracellular AK activity)
  fold induction at 50 µM: 1
P. aeruginosa; planktonic P. aeruginosa, positive cutoff 3-fold increase, read-out: AK-based Prestwick library screening result, P. aeruginosa (fold increase in extracellular AK activity)
  fold induction at 50 µM: 0.9
K. pneumoniae; planktonic K. pneumoniae, positive cutoff 3-fold increase, read-out: AK-based Prestwick library screening result, K. pneumoniae (fold increase in extracellular AK activity)
  fold induction at 50 µM: 1.1
E. cloacae; planktonic E. cloacae, positive cutoff 3-fold increase, read-out: AK-based Prestwick library screening result, E. cloacae (fold increase in extracellular AK activity)
  fold induction at 50 µM: 1.3
[2]; planktonic A. baumannii, positive cutoff 3-fold increase, read-out: AK-based Prestwick library screening result, A. baumannii (fold increase in extracellular AK activity)
  fold induction at 50 µM: 1.2
E. faecium; planktonic E. faecium, positive cutoff 3-fold increase, read-out: AK-based Prestwick library screening result, E. faecium (fold increase in extracellular AK activity)
  fold induction at 50 µM: 2.3

## CN(C)CC/C=C1\c2ccccc2CSc2ccccc21 [Dosulepin hydrochloride]
E. coli; [3]
  fold induction at 50 µM: 0.6
[1]; [4]
  fold induction at 50 µM: 0.5
P. aeruginosa; [5]
  fold induction at 50 µM: 0.5
K. pneumoniae; [6]
  fold induction at 50 µM: 0.5
E. cloacae; [7]
  fold induction at 50 µM: 0.5
[2]; [8]
  fold induction at 50 µM: 0.5
E. faecium; [9]
  fold induction at 50 µM: 0.9

## COc1cc2nc(N3CCN(C(=O)C4COc5ccccc5O4)CC3)nc(N)c2cc1OC (stereo not drawn) [Doxazosin mesylate]
E. coli; [10]
  fold induction at 50 µM: 1.4
[1]; [11]
  fold induction at 50 µM: 1.2
P. aeruginosa; [12]
  fold induction at 50 µM: 1.1
K. pneumoniae; [13]
  fold induction at 50 µM: 0.9
E. cloacae; [14]
  fold induction at 50 µM: 1.5
[2]; [15]
  fold induction at 50 µM: 1.3
E. faecium; [16]
  fold induction at 50 µM: 1.1

## CN(C)CCC=C1c2ccccc2COc2ccccc21 [Doxepin hydrochloride]
E. coli; [17]
  fold induction at 50 µM: 1.1
[1]; [18]
  fold induction at 50 µM: 0.9
P. aeruginosa; [19]
  fold induction at 50 µM: 1.1
K. pneumoniae; [20]
  fold induction at 50 µM: 0.8
E. cloacae; [21]
  fold induction at 50 µM: 1
[2]; [22]
  fold induction at 50 µM: 0.9
E. faecium; [23]
  fold induction at 50 µM: 1

## COc1cccc2c1C(=O)c1c(O)c3c(c(O)c1C2=O)C[C@@](O)(C(=O)CO)C[C@@H]3O[C@H]1C[C@H](N)[C@H](O)[C@H](C)O1 [Doxorubicin hydrochloride]
E. coli; [3]
  fold induction at 50 µM: 1
[1]; [4]
  fold induction at 50 µM: 0.9
P. aeruginosa; [5]
  fold induction at 50 µM: 0.6
K. pneumoniae; [6]
  fold induction at 50 µM: 0.7
E. cloacae; [7]
  fold induction at 50 µM: 1.2
[2]; [8]
  fold induction at 50 µM: 1
E. faecium; [9]
  fold induction at 50 µM: 1.7

## CCO.C[C@H]1c2cccc(O)c2C(O)=C2C(=O)[C@]3(O)C(O)=C(C(N)=O)C(=O)[C@@H](N(C)C)[C@@H]3[C@@H](O)[C@@H]21.C[C@H]1c2cccc(O)c2C(O)=C2C(=O)[C@]3(O)C(O)=C(C(N)=O)C(=O)[C@@H](N(C)C)[C@@H]3[C@@H](O)[C@@H]21.Cl.Cl.O [Doxycycline hyclate]
E. coli; [24]
  AK-based Prestwick Library Screening Results, E. coli (fold increase in extracellular AK activity): 2.0
[1]; [24]
  AK-based Prestwick Library Screening Results, S. aureus (fold increase in extracellular AK activity): 9.4
P. aeruginosa; [24]
  AK-based Prestwick Library Screening Results, P. aeruginosa (fold increase in extracellular AK activity): 0.7
K. pneumoniae; [24]
  AK-based Prestwick Library Screening Results, K. pneumoniae (fold increase in extracellular AK activity): 0.3
E. cloacae; [24]
  AK-based Prestwick Library Screening Results, E. cloacae (fold increase in extracellular AK activity): 1.5
[2]; [24]
  AK-based Prestwick Library Screening Results, A. baumannii (fold increase in extracellular AK activity): 3.4
E. faecium; [24]
  AK-based Prestwick Library Screening Results, E. faecium (fold increase in extracellular AK activity): 1.1

## CN(C)CCOC(C)(c1ccccc1)c1ccccn1 (stereo not drawn) [Doxylamine succinate]
E. coli; [17]
  fold induction at 50 µM: 0.8
[1]; [18]
  fold induction at 50 µM: 0.7
P. aeruginosa; [19]
  fold induction at 50 µM: 0.8
K. pneumoniae; [20]
  fold induction at 50 µM: 0.6
E. cloacae; [21]
  fold induction at 50 µM: 1
[2]; [22]
  fold induction at 50 µM: 0.8
E. faecium; [23]
  fold induction at 50 µM: 0.9

## CCN(CC)CCOC(=O)C(c1ccccc1)C1CCCCC1 (stereo not drawn) [Drofenine hydrochloride]
E. coli; [10]
  fold induction at 50 µM: 1.5
[1]; [11]
  fold induction at 50 µM: 1.5
P. aeruginosa; [12]
  fold induction at 50 µM: 1.2
K. pneumoniae; [13]
  fold induction at 50 µM: 1.2
E. cloacae; [14]
  fold induction at 50 µM: 1.5
[2]; [15]
  fold induction at 50 µM: 1.3
E. faecium; [16]
  fold induction at 50 µM: 1

## O=C(CCCN1CC=C(n2c(=O)[nH]c3ccccc32)CC1)c1ccc(F)cc1 [Droperidol]
E. coli; [3]
  fold induction at 50 µM: 0.9
[1]; [4]
  fold induction at 50 µM: 0.9
P. aeruginosa; [5]
  fold induction at 50 µM: 0.7
K. pneumoniae; [6]
  fold induction at 50 µM: 0.7
E. cloacae; [7]
  fold induction at 50 µM: 1.2
[2]; [8]
  fold induction at 50 µM: 1
E. faecium; [9]
  fold induction at 50 µM: 1

## COc1c2c(nc3ccccc13)OC(C(C)(O)CO)C2 (stereo not drawn) [Dubinidine]
E. coli; planktonic E. coli, […]
  AK-based Prestwick library screening result, E. coli (fold increase in extracellular AK activity): 1.4
[1]; planktonic S. aureus, positive cutoff 3-fold increase
  AK-based Prestwick library screening result, S. aureus (fold increase in extracellular AK activity): 2.4
P. aeruginosa; planktonic P. aeruginosa, positive cutoff 3-fold increase
  AK-based Prestwick library screening result, P. aeruginosa (fold increase in extracellular AK activity): 1.0
K. pneumoniae; planktonic K. pneumoniae, positive cutoff 3-fold increase
  AK-based Prestwick library screening result, K. pneumoniae (fold increase in extracellular AK activity): 0.9
E. cloacae; planktonic E. cloacae, positive cutoff 3-fold increase
  AK-based Prestwick library screening result, E. cloacae (fold increase in extracellular AK activity): 1.3
[2]; planktonic A. baumannii, positive cutoff 3-fold increase
  AK-based Prestwick library screening result, A. baumannii (fold increase in extracellular AK activity): 1.1
E. faecium; planktonic E. faecium, positive cutoff 3-fold increase
  AK-based Prestwick library screening result, E. faecium (fold increase in extracellular AK activity): 1.0

## CCCCOc1ccc(C(=O)CCN2CCCCC2)cc1 [Dyclonine hydrochloride]
E. coli; [17]
  fold induction at 50 µM: 1
[1]; [18]
  fold induction at 50 µM: 0.9
P. aeruginosa; [19]
  fold induction at 50 µM: 1
K. pneumoniae; [20]
  fold induction at 50 µM: 0.7
E. cloacae; [21]
  fold induction at 50 µM: 1.1
[2]; [22]
  fold induction at 50 µM: 0.9
E. faecium; [23]
  fold induction at 50 µM: 1
